Test results: the CheMixHub ionic liquid set

Experiment: xn = mol fraction of the nth substance listed

C[NH+](C)C.O=S(=O)([N-]S(=O)(=O)C(F)(F)F)C(F)(F)F + CC1COC(=O)O1
298.15 K, 101 kPa
Settings	electrical conductivity [S/m]
x1 = 0.0001	0.003
x1 = 0.0137	0.352
x2 = 0.6243	1.61
x2 = 0.7417	1.64
x2 = 0.8037	1.53
x2 = 0.979	0.476

COCCCC[n+]1ccn(C)c1.C[C@@H](O)[C@H](N)C(=O)[O-] + CS(C)=O
viscosity [mPa·s], 100 kPa
Settings	x1 = 0.0999	x1 = 0.2013	x1 = 0.3006	x1 = 0.3966	x1 = 0.5	x1 = 0.6011	x1 = 0.7007	x1 = 0.8001	x1 = 0.8946	x1 = 1
288.15 K	14.24	22.21	49.3	102.2	186.6	281	390	560	778	1030
293.15 K	12.05	18.12	37.45	74.9	132.1	192	264	371	503	647
298.15 K	9.53	15.09	30.16	56.54	94.4	135.2	181.5	254	340	424
303.15 K	7.91	12.7	24.02	43.12	69.4	97.9	131.7	179.9	234	290
308.15 K	6.67	10.74	19.82	33.94	52.97	74.4	98.5	133	168.7	205
313.15 K	5.86	9.49	16.58	27.18	39.95	53.5	69.5	90.7	108.9	132.9
318.15 K	5.2	8.31	13.95	21.6	31.33	41.63	53.64	69.5	80.3	98.5

CCCC[N+](CCCC)(CCCC)CCCC.O=S(=O)([O-])O + CCCCCCCCCO
101.3 kPa, x1 = 0.2
Settings	electrical conductivity [S/m]	viscosity [mPa·s]
293.15 K	0.00273	164.6
298.15 K	0.00375	–
303.15 K	0.00499	–
308.15 K	0.00648	84.2
313.15 K	0.0082	65.8

[Cl-].c1c[nH+]c[nH]1 + OCC(O)CO
100 kPa
Settings	viscosity [mPa·s]
313.2 K, x1 = 0.1667	306
313.2 K, x1 = 0.3333	154.5
323.2 K, x1 = 0.25	107
323.2 K, x1 = 0.3333	84
333.2 K, x1 = 0.5	100.1
343.2 K, x1 = 0.5	50.6

CC[n+]1ccn(CCOC)c1.N#C[S-] + CCCCO
viscosity [mPa·s], 100 kPa
Settings	x1 = 0.1	x1 = 0.1999	x1 = 0.2996	x1 = 0.4001	x1 = 0.4996	x1 = 0.5995	x1 = 0.6979	x1 = 0.7993	x1 = 0.9	x1 = 1
288.15 K	4.85	6.76	9.62	13.89	20	27.4	40.1	53	72	93.1
293.15 K	4.22	5.84	8.21	11.73	16.88	22.5	32.3	42.1	56.5	70.8
298.15 K	3.73	5.1	7.11	10.04	14.26	19	26.4	34.1	44.9	55.8
303.15 K	3.3	4.49	6.22	8.68	12.18	16.18	22	28	36.4	44.3
308.15 K	2.93	4.01	5.48	7.57	10.46	13.82	18.7	23.4	30	36
313.15 K	2.62	3.57	4.86	6.66	9.07	11.91	16.06	19.9	25.1	29.7
318.15 K	2.35	3.21	4.34	5.9	7.94	10.35	13.87	17.27	21.3	24.9
